Reference: patent publication US20230270764A1, “COMPOSITION COMPRISING CANNABINOIDS, TERPENES, AND FLAVONOIDS FOR TREATING DEPRESSION” (priority 2020, published 2023)
pIC50: −log10 of the molar value.

Key:
BV2 microglial cells [1] = assay: LPS-induced IL-1β release by BV2 microglia cell cultures (ELISA); assay type: cell-based, murine
Procedure: (§1) The BV2 murine microglial cell line is used in these studies.
(§2) The BV2 cells are cultured at 37° C. in a humidified atmosphere with 5% CO2 in high D-glucose (4.5 g/L) Dulbecco’s modified Eagle’s medium (Sigma, Rehovot, Israel) supplemented with 5% heat-inactivated fetal bovine serum, streptomycin (100 µg/ml), and penicillin (100 units/ml) and sodium pyruvate (1 mM; all from Biological Industries Ltd., Kibbutz Beit Haemek, Israel). 24 hours before experiments with LPS stimulation, the BV2 cells are split into 24 well plates, 2×10^5 cells per well, covered with 1 ml of growth medium and allowed to attach overnight. 24 hr before experiments with α-synuclein, the BV2 cells are split into 96-well plates, 50,000 (5×10^4) cells per well, covered with 200 µl of growth medium and allowed to attach overnight. Cultures of BV2 microglia cells are first treated by an individual cannabinoid, or terpene or flavonoid selected from: Cannabidiol (CBD), Δ-9-tetrahydrocannabinol (THC), Δ-8-tetrahydrocannabinol (THC), cannabigerol (CBG), cannabichromene (CBC), cannabigerolic acid (CBGA), Cannabidiolic acid (CBDA), THC acid (THCA), cannabichromenic Acid (CBCA), Cannabidivarin (CBDV), tetrahydrocannabivarin (THCV), Cannabichromevarin (CBCV), Cannabichromerocin ([…]), Cannabivarin (CBV), Cannabicitran (CBT), Cannabinol (CBN), Cannabicyclol (CBL), Cannabigerorcin (CBGO), Cannabinodiol (CBND), β-caryophyllene, β-elemene, β-myrcene, linalool, α-pinene, β-pinene, eucalyptol, alpha-terpineol, valencene, geraniol (lemonol), bisabolol, nerolidol, ocimene, terpinolene, humulene, α-terpinene, camphene, fenchol, α-phellandrene, Δ3-carene, γ-cardinene, sabinene, limonene, β-amyrin, cycloartenol, cannflavin A, cannflavin B, kaempferol, quercetin, luteolin, apigenin, canniprene, orientin, β-sitosterol, vitexin, isovitexin, and chrysin. Additional cultures of BV2 microglia cells are treated by an individual cannabinoid, with at least one additional cannabinoid, and/or terpene, and/or flavonoid, and/or celecoxib. Additional cultures are exposed to the vehicle of these compounds (cremophor, ethanol and PBS, 1:1:18 (v/v/v)) (FIG. 2A). In some studies, cultures of BV2 microglia cells are treated by a specific whole plant cannabis extract, with or without supplementation with cannabinoid(s), and/or terpene(s) and/or flavonoid(s), and/or celecoxib (FIG. 2B).
(§3) For each individual cannabinoid mentioned above, 3-4 concentrations are used, ranging from 0.1 to 10 µM. For ultra-low dose Δ9-THC the concentration used is 0.01 µM. For each individual terpene or flavonoid mentioned above, 3-4 concentrations are used, ranging from 1 to 50 µM. For celecoxib, 3-4 concentrations are used, ranging from 0.1 to 10 µM. Two hours following the treatment, the cultures are exposed to one of the following microglia stimulators: LPS (Sigma L2630; Escherichia coli serotype O111:B4) is dissolved in D-PBS (Sigma, D8537) to a pre-stock concentration of 1 mg/ml, aliquoted and stored at -80° C. Stock solution of LPS at 10 ug/ml is prepared using sterile D-PBS, followed by filtering via 0.22 µm filter membrane, aliquoting and storing in -20° C. LPS is applied into the cell medium at a final concentration of 100 ng/ml. Poly I:C (Sigma, P1530) was first dissolved in sterile, molecular grade water to the concentration of 10 mg/ml (following the manufacturer’s instructions). This stock solution was further diluted to the concentration of 1 mg/ml in sterile PBS, and the aliquots stored in -20 °C.

BV2 microglial cells [2] = assay: LPS-induced TNFα secretion by BV2 microglia cell cultures (ELISA); assay type: cell-based, murine
Procedure: as §1, §2
as §3, with “For each individual terpene or flavonoid mentioned above, 3-4 concentrations are used, ranging from 1 to 50 µM.” left out

LPS-injected mice = assay: Sucrose preference test in the LPS-induced model of depression; assay type: in vivo

SMILES | IL-1β secretion vs Veh plus LPS (BV2 microglial cells [1]; Example 4, by itself at 5 µM, not at 1 or 2.5 µM) | pIC50 (BV2 microglial cells [1]; Mus musculus, BV-2, Example 4 (FIG. 5D), by itself, read-out: IC50 for inhibiting LPS-induced IL-1β release) | levels of TNFα compared to cultures treated with vehicle and LPS (BV2 microglial cells [2]; 24-hours incubation, CBD 10 but not 1 µM, linalool 100 but not 25 µM, kaempferol dose-dependently at 10, 25 and 50 µM, quercetin 10 and 25 but not 5 µM) | release of TNFα vs LPS-activated cultures treated with vehicle (BV2 microglial cells [2]; Example 4, by itself at 1, 2.5 and 5 µM) | pIC50 (BV2 microglial cells [2]; Mus musculus, BV-2, Example 4 (FIG. 5C), by itself, read-out: IC50 for inhibiting LPS-induced TNFα release) | effect on lipopolysaccharide-induced TNFα secretion (BV2 microglial cells [2]; THC 0.1, 0.5 and 1 µM, CBDA 0.2, 1 and 2 µM, CBC 0.1, 1 and 2 µM, α-pinene, β-pinene, limonene 25 or 100 µM) | sucrose consumption vs Vehicle-treated LPS-injected mice (LPS-injected mice; young-adult female mice, CBDA 1 mg/kg (not 0.5 or 5)) | sucrose preference vs Vehicle-treated LPS-injected mice (LPS-injected mice; young-adult female mice, CBDA 1 mg/kg (not 0.5 or 5) i.p. 1 hr before LPS 330 µg/kg) | sucrose consumption vs Vehicle-treated LPS-injected mice (LPS-injected mice; young-adult male mice, CBDA 1 mg/kg) | sucrose preference vs Vehicle-treated LPS-injected mice (LPS-injected mice; young-adult male mice, CBDA 1 mg/kg (not 5)) | sucrose consumption vs Vehicle-treated LPS-injected mice (LPS-injected mice; young-adult male mice, CBDA 5 mg/kg, CBD 25 mg/kg and CBDA 1 mg/kg)
O=c1c(O)c(-c2ccc(O)cc2)oc2cc(O)cc(O)c12 [kaempferol] | effective in decreasing IL-1β | 5.21 | reduced | no effects | 5.01 |  |  |  |  |  | 
C=C(C)[C@@H]1CCC(C)=C[C@H]1c1c(O)cc(CCCCC)c(C(=O)O)c1O [CBDA, Cannabidiolic acid] |  |  |  |  |  | no effect | significantly increased | significantly increased | significantly increased | significantly increased | significant increase
